Laboratory results reported in ChEMBL document CHEMBL1156286, “Inhibition of eEF2-K by thieno[2,3-b]pyridine analogues” (Bioorg Med Chem Lett, 2010).

How the values were obtained:
[1] = molecular target: T1, Eukaryotic elongation factor 2 kinase (Homo sapiens, UniProt O00418); test: Inhibition of GST tagged eEf2K expressed in Escherichia coli by fluorometric method
T1 sequence (O00418 whole entry): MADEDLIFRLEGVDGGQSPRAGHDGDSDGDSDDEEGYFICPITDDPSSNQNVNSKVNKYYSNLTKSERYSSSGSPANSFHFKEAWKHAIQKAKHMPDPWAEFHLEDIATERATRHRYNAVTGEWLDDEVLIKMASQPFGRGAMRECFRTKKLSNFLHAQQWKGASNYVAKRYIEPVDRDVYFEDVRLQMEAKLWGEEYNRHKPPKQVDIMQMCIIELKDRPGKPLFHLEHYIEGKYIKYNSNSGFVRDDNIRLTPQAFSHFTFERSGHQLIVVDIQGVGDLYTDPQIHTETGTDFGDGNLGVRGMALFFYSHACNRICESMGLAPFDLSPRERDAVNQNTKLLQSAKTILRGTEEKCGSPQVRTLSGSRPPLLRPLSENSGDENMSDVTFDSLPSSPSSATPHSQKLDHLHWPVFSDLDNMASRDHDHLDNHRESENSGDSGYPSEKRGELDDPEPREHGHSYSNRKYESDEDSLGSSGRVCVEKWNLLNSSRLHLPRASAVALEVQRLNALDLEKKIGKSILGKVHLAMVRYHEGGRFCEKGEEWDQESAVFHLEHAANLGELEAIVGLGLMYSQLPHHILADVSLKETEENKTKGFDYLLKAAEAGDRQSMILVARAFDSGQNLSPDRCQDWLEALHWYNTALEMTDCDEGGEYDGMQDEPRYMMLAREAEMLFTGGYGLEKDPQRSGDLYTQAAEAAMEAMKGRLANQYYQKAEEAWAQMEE

HCT-116 = test: Cytotoxicity against human HCT116 cells after 72 hrs; assay type: functional, cell-based; conditions: HCT-116, 72 h
A549 = test: Cytotoxicity against human A549 cells after 72 hrs; assay type: functional, cell-based; conditions: A549, 72 h

Structure (SMILES) | IC50 [1] [nM] | EC50 (HCT-116) [nM] | EC50 (A549) [nM]
NC(=O)c1sc2nc3c(cc2c1N)CCCCCC3 | 2500 | 38000 | 38000
CC(C)Cc1c2c(nc3sc(C(N)=O)c(N)c13)CCCCCC2 | 860 | – | –
NC(=O)c1sc2nc3c(c(C4CC4)c2c1N)CCCCCC3 | 2000 | – | –
NC(=O)c1sc2nc3c(c(-c4ccc(C(F)(F)F)o4)c2c1N)CCCCCC3 | 300 | – | –
NC(=O)c1sc2nc(CC3CCCCC3)cc(-c3ccco3)c2c1N | > 10000 | – | –
NC(=O)c1sc2nc3c(c(-c4ccoc4)c2c1N)CCCCCC3 | 1100 | – | –
COC(=O)c1oc(-c2c3c(nc4sc(C(N)=O)c(N)c24)CCCCCC3)cc1C | > 20000 | – | –
Nc1ncnc2c1sc1nc3c(c(-c4ccco4)c12)CCCCC3 | 4700 | > 100000 | 17000
COc1ccc(-c2cc(-c3ccco3)c3c(N)c(C(N)=O)sc3n2)c(OC)c1 | > 10000 | – | –
NC(=O)c1sc2nc3c(c(-c4ccccc4)c2c1N)CCCCCC3 | > 20000 | – | –
NC(=O)c1sc2nc3c(c(-c4nccs4)c2c1N)CCCCCC3 | 1400 | – | –
Cc1cccnc1-c1c2c(nc3sc(C(N)=O)c(N)c13)CCCCCC2 | > 20000 | – | –
NC(=O)c1sc2nc3c(c(CCc4ccccc4)c2c1N)CCCCCC3 | > 20000 | – | –
COc1ccc(F)c(-c2c3c(nc4sc(C(N)=O)c(N)c24)CCCCCC3)c1 | 1300 | – | –
NC(=O)c1sc2nc3c(c(-c4cc5ccccc5o4)c2c1N)CCCCCC3 | 330 | – | –
CCc1ccc(-c2c3c(nc4sc(C(N)=O)c(N)c24)CCCCCC3)o1 | 660 | – | –
Nc1ncnc2c1sc1nc(N3CCOCC3)c3c(c12)CCCC3 | 220 | 29000 | 6700
Nc1ncnc2c1sc1nc3c(cc12)CCCCCCC3 | 3700 | – | –

Structure (SMILES) | IC50 [1] [nM] | EC50 (HCT-116) [nM] | EC50 (A549) [nM]
Nc1ncnc2c1sc1nc3c(c(-c4ccco4)c12)CCCCCCC3 | 350 | – | –
NC(=O)c1sc2nc3c(c(-c4ccc(CO)o4)c2c1N)CCCCCC3 | 800 | – | –
Cc1cc(-c2c3c(nc4sc(C(N)=O)c(N)c24)CCCCCC3)oc1C | 1100 | – | –
Cc1c2c(nc3sc(C(N)=O)c(N)c13)CCCCCC2 | 1100 | – | –
NC(=O)c1sc2nc3c(c(/C=C/c4ccco4)c2c1N)CCCCCC3 | 320 | 19000 | 15000
Cc1ccsc1-c1c2c(nc3sc(C(N)=O)c(N)c13)CCCCCC2 | 460 | – | –
Cc1cccc(-c2c3c(nc4sc(C(N)=O)c(N)c24)CCCCCC3)c1 | 1200 | – | –
Cn1cccc1-c1c2c(nc3sc(C(N)=O)c(N)c13)CCCCCC2 | 990 | – | –
COc1ccc(Cc2cc(-c3ccco3)c3c(N)c(C(N)=O)sc3n2)c(OC)c1 | > 10000 | – | –
NC(=O)c1sc2nc3c(c(-c4ccco4)c2c1N)CCCCCCC3 | – | 17000 | –
NC(=O)c1sc2nc3c(c(-c4ccc(Cl)c(Cl)c4)c2c1N)CCCCCC3 | 990 | – | –
NC(=O)c1sc2nc3c(c(-c4ccco4)c2c1N)CCCCCCCC3 | > 20000 | – | –
NC(=O)c1sc2nc3c(c(-c4ccc(Cl)cc4)c2c1N)CCCCCC3 | 1100 | – | –
NC(=O)c1sc2nc3c(c(-c4ccco4)c2c1N)CCCCC3 | 1100 | – | –
NC(=O)c1sc2nc3c(c(-c4ccc(Cl)o4)c2c1N)CCCCCC3 | 280 | 100000 | 64000
NC(=O)c1sc2nc3c(c(-c4ccco4)c2c1N)CCCCCC3 | 640 | – | –
CC1CCCc2c1nc1sc(C(N)=O)c(N)c1c2-c1ccco1 (racemic) | > 20000 | – | –
CC(C)=CCCC(C)c1c2c(nc3sc(C(N)=O)c(N)c13)CCCCCC2 (racemic) | 10000 | – | –
